The values below come from US20160031855A1, “PROTEIN KINASE INHIBITORS” (ORION CORPORATION, priority 2013, published 2016).

For the test, the target named is T1, FGFR1 kinase (Homo sapiens, UniProt P11362).
T1 construct: purchased Upstate, USA
As to the kind of experiment: TR-FRET assay with FGFR1 kinase. The test is classed as biochemical. As to conditions: 13 μM ATP; for IC50: dose response, read-out: IC50 of FGFR1 inhibition; for inhibition at 1 µM / Inhibition (%) of FGFR1 at 1000 nM: compound at 1000 nM. On the procedure: 1. Inhibition of FGFR1 kinase
Compounds were screened in the TR-FRET assay with FGFR1 kinase. 5 ng of FGFR1 [Upstate, USA] kinase was used for assay. The compound was incubated with the kinase for 30 minutes at room temperature. After the incubation, substrate mix [40 nM Ultra light poly GT (Perkin Elmer, USA) and 13 μM ATP (Sigma)] was added. The above reaction was stopped by the addition of 40 mM EDTA after the 30 min kinase reaction. The Eu-labelled antiphospho-tyrosine antibody [Perkin Elmer, USA] was added at 0.5 nM and the fluorescence emission at 615 nm/665 nm [excitation at 340 nm] was measured. The compounds were initially screened at 100 nM and 1 μM concentrations. The compounds with >50% inhibition at 100 nM of FGFR1 were taken for the full dose response studies. The final DMSO concentration in the assay was 1%. For IC50 determination, ⅓^rd serial dilution was made from the 20 mM DMSO stock solution. 2 μl of these were transferred to the test wells containing […] of the reaction mixture [total reaction volume 20 μl]. The fluorescence was measured in Perkin Elmer Wallac 1420 Multilabel Counter Victor 3. The IC50 was determined by fitting the dose response data to sigmoidal curve fitting equation using GraphPad Prism software V5.

Counter-ions that a name gives are not always drawn.

T1 sequence (P11362 22-822): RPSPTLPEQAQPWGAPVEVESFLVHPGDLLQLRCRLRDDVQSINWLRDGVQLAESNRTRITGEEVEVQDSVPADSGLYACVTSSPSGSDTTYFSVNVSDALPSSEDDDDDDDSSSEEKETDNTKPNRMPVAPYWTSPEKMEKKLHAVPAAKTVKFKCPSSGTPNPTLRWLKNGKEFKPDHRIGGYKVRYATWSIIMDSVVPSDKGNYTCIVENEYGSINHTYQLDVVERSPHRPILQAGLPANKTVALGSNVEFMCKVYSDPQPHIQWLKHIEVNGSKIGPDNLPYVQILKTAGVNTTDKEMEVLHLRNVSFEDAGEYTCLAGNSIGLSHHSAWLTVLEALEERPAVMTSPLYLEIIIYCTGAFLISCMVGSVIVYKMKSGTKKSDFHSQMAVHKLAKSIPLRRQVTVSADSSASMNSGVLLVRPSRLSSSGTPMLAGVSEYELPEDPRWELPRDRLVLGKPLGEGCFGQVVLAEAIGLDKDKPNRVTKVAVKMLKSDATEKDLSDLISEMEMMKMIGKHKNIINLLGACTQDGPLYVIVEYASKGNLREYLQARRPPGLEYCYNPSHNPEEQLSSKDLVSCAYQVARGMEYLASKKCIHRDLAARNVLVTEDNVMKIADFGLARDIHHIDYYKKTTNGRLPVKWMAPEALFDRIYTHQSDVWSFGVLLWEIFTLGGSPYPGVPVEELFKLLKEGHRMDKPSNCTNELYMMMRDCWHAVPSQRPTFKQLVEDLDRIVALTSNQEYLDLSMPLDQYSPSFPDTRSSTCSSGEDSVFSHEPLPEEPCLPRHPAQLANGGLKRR

A word on the IC50: it is the point on the concentration scale where inhibition reaches its midpoint. In general, inhibition refers to the share of the control response that was lost under treatment. With `Cn1cc(-c2ccc3c(c2)ncn3-c2cc(-c3ccc(F)cc3F)cc(Nc3ccn(C)n3)n2)cn1` [Example 1, 4-(2,4-Difluorophenyl)-N-(1-methyl-1H-pyrazol-3-yl)-6-(5-(1-methyl-1H-pyrazol-4-yl)-1H-benzo[d]imidazol-1-yl)pyridin-2-amine], the half-maximal inhibitory concentration (IC50) stood at 16.5 nM and the inhibition at 1 µM turned out to be 97%.

With `Cn1cc(-c2ccc3c(c2)ncn3-c2cc(-c3ccc(F)cc3F)cc(NS(=O)(=O)C3CC3)n2)cn1` [Example 2 (imido), Sodium salt of imido form of N-(4-(2,4-difluorophenyl)-6-(5-(1-methyl-1H-pyrazol-4-yl)-1H-benzo[d]imidazol-1-yl)pyridin-2-yl)cyclopropanesulfonamide], the IC50 was determined as 3.3 nM and the “Inhibition (%) of FGFR1 at 1000 nM” value worked out at 97%.

As to `Cn1cc(-c2ccc3c(c2)ncn3-c2cc(-c3ccc(F)cc3F)cc(NS(=O)(=O)C3CC3)n2)cn1` [Example 2, N-(4-(2,4-difluorophenyl)-6-(5-(1-methyl-1H-pyrazol-4-yl)-1H-benzo[d]-imidazol-1-yl)pyridin-2-yl)cyclopropanesulfonamide], the 50% inhibitory concentration (IC50) was found to be 3.9 nM and the inhibition at 1 µM stood at 99%.

As to `Cn1cc(-c2ccc3c(c2)ncn3-c2cc(-c3ccc(F)cc3F)cc(NS(C)(=O)=O)n2)cn1` [Example 4, N-(4-(2,4-difluorophenyl)-6-(5-(1-methyl-1H-pyrazol-4-yl)-1H-benzo[d]-imidazol-1-yl)pyridin-2-yl)methanesulfonamide], the IC50 amounted to 4.3 nM and the inhibition at 1 µM was found to be 98%.

Turning to `CCS(=O)(=O)Nc1cc(-c2ccc(F)cc2F)cc(-n2cnc3cc(-c4cnn(C)c4)ccc32)n1` [Example 5 (imido), Sodium salt of imido form of N-(4-(2,4-difluorophenyl)-6-(5-(1-methyl-1H-pyrazol-4yl)-1H-benzo[d]imidazol-1-yl)pyridin-2-yl)ethanesulfonamide], the 50% inhibitory concentration (IC50) amounted to 4.4 nM and the “Inhibition (%) of FGFR1 at 1000 nM” value is recorded as 98%.

With `CCS(=O)(=O)Nc1cc(-c2ccc(F)cc2F)cc(-n2cnc3cc(-c4cnn(C)c4)ccc32)n1` [Example 5, N-(4-(2,4-difluorophenyl)-6-(5-(1-methyl-1H-pyrazol-4-yl)-1H-benzo[d]-imidazol-1-yl)pyridin-2-yl)ethanesulfonamide], the half-maximal inhibitory concentration (IC50) was 1.1 nM and the inhibition at 1 µM was determined as 99%.

For `CC(C)S(=O)(=O)Nc1cc(-c2ccc(F)cc2F)cc(-n2cnc3cc(-c4cnn(C)c4)ccc32)n1` [Example 6 (imido), Imido form of N-(4-(2,4-difluorophenyl)-6-(5-(1-methyl-1H-pyrazol-4-yl)-1H-benzo[d]imidazol-1-yl)pyridin-2-yl)propane-2-sulfonamide], the IC50 turned out to be 1.7 nM and the “Inhibition (%) of FGFR1 at 1000 nM” value is on record as 98%.

For `CC(C)S(=O)(=O)Nc1cc(-c2ccc(F)cc2F)cc(-n2cnc3cc(-c4cnn(C)c4)ccc32)n1` [Example 6, N-(4-(2,4-difluorophenyl)-6-(5-(1-methyl-1H-pyrazol-4-yl)-1H-benzo[d]-imidazol-1-yl)pyridin-2-yl)propane-2-sulfonamide], the IC50 was 1.7 nM and the inhibition at 1 µM is 99%.

As to `Cn1cc(-c2ccc3c(c2)ncn3-c2cc(-c3ccccc3F)cc(NS(=O)(=O)C3CC3)n2)cn1` [Example 8 (imido), Sodium salt of imido form of N-(4-(2-fluorophenyl)-6-(5-(1-methyl-1H-pyrazol-4-yl)-1H-benzo[d]imidazol-1-yl)pyridin-2-yl)cyclopropanesulfonamide], the half-maximal inhibitory concentration (IC50) is 3.3 nM and the “Inhibition (%) of FGFR1 at 1000 nM” value came to 97%.

Turning to `Cn1cc(-c2ccc3c(c2)ncn3-c2cc(-c3ccccc3F)cc(NS(=O)(=O)C3CC3)n2)cn1` [Example 8, N-(4-(2-fluorophenyl)-6-(5-(1-methyl-1H-pyrazol-4-yl)-1H-benzo[d]imidazol-1-yl)pyridin-2-yl)cyclopropanesulfonamide], the IC50 was found to be 5.42 nM and at 1 µM the inhibition was 99%.

Take `Cn1cc(-c2ccc3c(c2)ncn3-c2cc(-c3ccccc3F)cc(NS(C)(=O)=O)n2)cn1` [Example 10, N-(4-(2-fluorophenyl)-6-(5-(1-methyl-1H-pyrazol-4-yl)-1H-benzo[d]imidazol-1-yl)pyridin-2-yl)methanesulfonamide]: the IC50 is 5.8 nM and the inhibition at 1 µM was found to be 97%.

As for `CCS(=O)(=O)Nc1cc(-c2ccccc2F)cc(-n2cnc3cc(-c4cnn(C)c4)ccc32)n1` [Example 11 (imido), Sodium salt of imido form of N-(4-(2-fluorophenyl)-6-(5-(1-methyl-1H-pyrazol-4-yl)-1H-benzo[d]imidazol-1-yl)pyridin-2-yl)ethanesulfonamide], the IC50 is 3.2 nM and the “Inhibition (%) of FGFR1 at 1000 nM” value is given as 98%.

For the molecule `CCS(=O)(=O)Nc1cc(-c2ccccc2F)cc(-n2cnc3cc(-c4cnn(C)c4)ccc32)n1` [Example 11, N-(4-(2-fluorophenyl)-6-(5-(1-methyl-1H-pyrazol-4-yl)-1H-benzo[d]imidazol-1-yl)pyridin-2-yl)ethanesulfonamide], the IC50 turned out to be 2.8 nM and at 1 µM the inhibition was 98%.

Regarding `CC(C)S(=O)(=O)Nc1cc(-c2ccccc2F)cc(-n2cnc3cc(-c4cnn(C)c4)ccc32)n1` [Example 12 (imido), Sodium salt of imido form of N-(4-(2-fluorophenyl)-6-(5-(1-methyl-1H-pyrazol-4-yl)-1H-benzo[d]imidazol-1-yl)pyridin-2-yl)propane-2-sulfonamide], the IC50 was determined as 5.2 nM and the “Inhibition (%) of FGFR1 at 1000 nM” value came out at 99%.

With `CC(C)S(=O)(=O)Nc1cc(-c2ccccc2F)cc(-n2cnc3cc(-c4cnn(C)c4)ccc32)n1` [Example 12, N-(4-(2-fluorophenyl)-6-(5-(1-methyl-1H-pyrazol-4-yl)-1H-benzo[d]imidazol-1-yl)pyridin-2-yl)propane-2-sulfonamide], the IC50 was determined as 1.5 nM and at 1 µM the inhibition was 97%.

With `Cn1cc(-c2ccc3c(c2)ncn3-c2cc(-c3ccc(F)cc3)cc(NS(=O)(=O)C3CC3)n2)cn1` [Example 14], the concentration for half-maximal inhibition (IC50) came out at 14.4 nM and at 1 µM the inhibition was 98%.

With `Cn1cc(-c2ccc3c(c2)ncn3-c2cc(-c3ccc(F)cc3)cc(NS(C)(=O)=O)n2)cn1` [Example 16, N-(4-(4-fluorophenyl)-6-(5-(1-methyl-1H-pyrazol-4-yl)-1H-benzo[d]imidazol-1-yl)pyridin-2-yl)methanesulfonamide], the IC50 was 3.4 nM and testing at 1 µM gave an inhibition of 97%.

In the case of `CC(C)S(=O)(=O)Nc1cc(-c2ccc(F)cc2)cc(-n2cnc3cc(-c4cnn(C)c4)ccc32)n1` [Example 17 (imido), Sodium salt of imido form: of N-(4-(4-fluorophenyl)-6-(5-(1-methyl-1H-pyrazol-4-yl)-1H-benzo[d]imidazol-1-yl)pyridin-2-yl)propane-2-sulfonamide], the IC50 is 5.2 nM and the “Inhibition (%) of FGFR1 at 1000 nM” value turned out to be 97%.

For the molecule `CC(C)S(=O)(=O)Nc1cc(-c2ccc(F)cc2)cc(-n2cnc3cc(-c4cnn(C)c4)ccc32)n1` [Example 17, N-(4-(4-fluorophenyl)-6-(5-(1-methyl-1H-pyrazol-4-yl)-1H-benzo[d]imidazol-1-yl)pyridin-2-yl)propane-2-sulfonamide], the 50% inhibitory concentration (IC50) turned out to be 4.6 nM and testing at 1 µM gave an inhibition of 96%.
